From ChEMBL document CHEMBL1136665 (Bioorg Med Chem Lett, 2003)

How the values were obtained:
Rattus norvegicus [1] = experiment: Inhibition of carrageenan induced rat paw oedema.; type: functional
[2] = molecular target: T1, Prostaglandin G/H synthase 2 (Homo sapiens, UniProt P35354); experiment: Inhibitory concentration was measured against Cyclooxygenase-2 in human whole blood; type: tissue-based
T1 sequence (P35354 whole entry): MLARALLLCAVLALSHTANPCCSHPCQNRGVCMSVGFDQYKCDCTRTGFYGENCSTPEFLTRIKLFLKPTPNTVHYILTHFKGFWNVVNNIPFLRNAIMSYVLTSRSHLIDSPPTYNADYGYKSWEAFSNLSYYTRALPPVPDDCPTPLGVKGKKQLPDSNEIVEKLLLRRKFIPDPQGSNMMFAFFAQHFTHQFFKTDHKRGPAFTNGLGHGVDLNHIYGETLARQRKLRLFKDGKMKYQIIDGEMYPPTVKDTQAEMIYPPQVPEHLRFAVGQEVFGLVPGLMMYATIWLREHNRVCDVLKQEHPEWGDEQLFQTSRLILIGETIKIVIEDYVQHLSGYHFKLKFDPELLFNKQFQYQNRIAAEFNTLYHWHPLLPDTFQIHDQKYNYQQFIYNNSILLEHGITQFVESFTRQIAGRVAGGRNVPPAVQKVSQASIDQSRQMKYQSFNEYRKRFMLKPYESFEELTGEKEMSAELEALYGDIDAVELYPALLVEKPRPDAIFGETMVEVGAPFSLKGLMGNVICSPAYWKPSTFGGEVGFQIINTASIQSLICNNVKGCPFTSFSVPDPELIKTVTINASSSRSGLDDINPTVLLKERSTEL

[3] = molecular target: T2, Prostaglandin G/H synthase 1 (Homo sapiens, UniProt P23219); experiment: Inhibitory concentration was measured […] the sensitive U937 microsome assay; type: microsomes
[4] = molecular target: T1, Prostaglandin G/H synthase 2
[5] = Peak plasma concentration (Cmax) following an oral dose of […] mg/kg in rats; type: ADME, organism-based; settings: rat, 20 mg/kg
[6] = Clearance rate following an oral dose of 20 mg/kg in rats; type: ADME, organism-based; design: dose 20 mg/kg, route oral; settings: rat, in vivo, read-out: Clearance
[7] = molecular target: T2, Prostaglandin G/H synthase 1; type: microsomes
Description: Inhibitory concentration was measured against Prostaglandin G/H synthase 1 in the sensitive U937 microsome assay

[8] = molecular target: T1, Prostaglandin G/H synthase 2; remark: listed apart in the source
Description: Inhibitory concentration was measured against Prostaglandin G/H synthase 2 in human whole blood

[9] = molecular target: T2, Prostaglandin G/H synthase 1; type: tissue-based, Blood
Description: Inhibitory concentration was measured against Prostaglandin G/H synthase 1 in human whole blood

[10] = Oral bioavailability in rat; type: ADME, organism-based; settings: in vivo
[11] = Aqueous solubility was determined; type: physicochemical
Rattus norvegicus [12] = species: Rattus norvegicus; experiment: Effective concentration to reduce pyrexia was determined in rats; type: functional
Rattus norvegicus [13] = species: Rattus norvegicus; experiment: Inhibitory dose to produce analgesia was determined in rats; type: functional; settings: read-out: ID50 (the source's name)
Rattus norvegicus [14] = species: Rattus norvegicus; experiment: Inhibitory dose to reduce arthritis was determined in rats; type: functional; settings: read-out: ID50 (the source's name)

T2 sequence (P23219 whole entry): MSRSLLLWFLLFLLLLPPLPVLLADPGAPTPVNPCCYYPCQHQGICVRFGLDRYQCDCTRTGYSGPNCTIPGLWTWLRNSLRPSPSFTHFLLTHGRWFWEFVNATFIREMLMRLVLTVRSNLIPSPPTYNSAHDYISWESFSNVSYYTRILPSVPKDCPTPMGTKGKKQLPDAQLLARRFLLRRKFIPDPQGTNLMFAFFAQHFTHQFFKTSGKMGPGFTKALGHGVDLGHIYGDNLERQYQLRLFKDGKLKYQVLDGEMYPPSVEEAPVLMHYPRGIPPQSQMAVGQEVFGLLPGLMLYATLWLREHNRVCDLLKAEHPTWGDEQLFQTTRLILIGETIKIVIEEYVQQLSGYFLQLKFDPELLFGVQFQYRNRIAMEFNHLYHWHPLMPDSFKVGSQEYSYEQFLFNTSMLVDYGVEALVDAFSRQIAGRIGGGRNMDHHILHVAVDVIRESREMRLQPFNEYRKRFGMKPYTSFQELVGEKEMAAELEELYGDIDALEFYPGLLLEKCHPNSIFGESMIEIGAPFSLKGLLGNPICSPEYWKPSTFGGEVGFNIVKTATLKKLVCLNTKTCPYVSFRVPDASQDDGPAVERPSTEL

| Compound | IC50 [4] [µM] | IC50 [7] [µM] | IC50 [8] [µM] | ED50 (Rattus norvegicus [1]) [mg/kg] | further results |
| --- | --- | --- | --- | --- | --- |
| CC1(O)OC(=O)C(c2ccc(F)cc2)=C1c1ccc(S(C)(=O)=O)cc1 (configuration not stated) | 0.38 |  |  | 1.8 | IC50 [2]: 1.8 µM; IC50 [3]: > 100 µM; Cmax [5]: 60 µM; CL/F [6]: 2.6 mL/min |
| CC1(O)OC(=O)C(c2ccc(Cl)cc2Cl)=C1c1ccc(S(C)(=O)=O)cc1 (configuration not stated) | 1.2 | > 100 | 7.5 |  |  |
| CC1(O)OC(=O)C(c2ccc3ccccc3c2)=C1c1ccc(S(C)(=O)=O)cc1 (configuration not stated) | 0.45 | 30 | 3.2 | > 10 |  |
| CC1(O)OC(=O)C(c2ccccc2)=C1c1ccc(S(C)(=O)=O)cc1 (configuration not stated) | 0.16 | > 100 | 1.2 | 1.5 | IC50 [9]: > 90 µM |
| CC(C)c1ccc(C2=C(c3ccc(S(C)(=O)=O)cc3)C(C)(O)OC2=O)cc1 (configuration not stated) | 0.41 | > 300 | 4.3 |  | IC50 [9]: > 100 µM |
| CC1(O)OC(=O)C(c2ccsc2)=C1c1ccc(S(C)(=O)=O)cc1 (configuration not stated) | 0.11 | > 100 | 24 |  |  |
| CC(=O)/C(=C(\C(=O)[O-])c1ccc(Cl)cc1)c1ccc(S(C)(=O)=O)cc1.[Na+] |  |  |  | 1.8 | solubility [11]: > 100 mg/mL; ED50 (Rattus norvegicus [12]): 0.7 mg/kg; ED50 (Rattus norvegicus [13]): 0.8 mg/kg; ED50 (Rattus norvegicus [14]): 0.6 mg/kg |
| CC1(O)OC(=O)C(c2cccc(F)c2)=C1c1ccc(S(C)(=O)=O)cc1 (configuration not stated) | 0.25 | > 100 | 12.8 | > 10 |  |
| CC1(O)OC(=O)C(c2cccs2)=C1c1ccc(S(C)(=O)=O)cc1 (configuration not stated) | 1.9 | > 100 | > 33 |  |  |
| CC1(O)OC(=O)C(c2cc3ccccc3s2)=C1c1ccc(S(C)(=O)=O)cc1 (configuration not stated) |  | > 100 |  |  |  |
| CC1(O)OC(=O)C(c2ccc(O)cc2)=C1c1ccc(S(C)(=O)=O)cc1 (configuration not stated) | > 5 | > 10 | > 33 |  |  |
| CC1(O)OC(=O)C(c2ccc(F)c(F)c2)=C1c1ccc(S(C)(=O)=O)cc1 (configuration not stated) | 0.2 | > 300 | 6.3 | > 10 |  |
| CC(=O)/C(=C(\C(=O)[O-])c1ccccc1)c1ccc(S(C)(=O)=O)cc1.[Na+] |  |  |  |  | solubility [11]: > 100 mg/mL |
| CC1(O)OC(=O)C(c2cc(F)cc(F)c2)=C1c1ccc(S(C)(=O)=O)cc1 (configuration not stated) | 0.55 | > 100 | 13.4 |  | IC50 [9]: > 90 µM |
| Cc1ccc(-c2cc(C(F)(F)F)nn2-c2ccc(S(N)(=O)=O)cc2)cc1 [CELECOXIB] |  |  |  | 3.2 |  |
| CS(=O)(=O)c1ccc(C2=C(c3ccccc3)C(=O)OC2)cc1 [ROFECOXIB] |  |  |  | 1.5 |  |

Now from value to molecule, other results behind:

| IC50 [4] [µM] | IC50 [7] [µM] | IC50 [8] [µM] | Compound | ED50 (Rattus norvegicus [1]) [mg/kg] | further results |
| --- | --- | --- | --- | --- | --- |
|  | 3 | 0.8 | CC(C)OC1(C)OC(=O)C(c2ccc(F)cc2)=C1c1ccc(S(C)(=O)=O)cc1 (configuration not stated) |  |  |
| 0.07 | 35 | 0.85 | CC1(O)OC(=O)C(c2ccc(Cl)c(Cl)c2)=C1c1ccc(S(C)(=O)=O)cc1 (configuration not stated) | 1.9 | IC50 [9]: 75 µM |
| > 5 | > 10 | > 10 | CC1(O)OC(=O)C(Sc2ccccc2)=C1c1ccc(S(C)(=O)=O)cc1 (configuration not stated) |  |  |
| 0.069 | 14 |  | COC1(C)OC(=O)C(c2ccc(F)cc2)=C1c1ccc(S(C)(=O)=O)cc1 (configuration not stated) | 2.8 | IC50 [2]: 0.1 µM; IC50 [9]: 57 µM |
| 0.32 | > 10 | 0.4 | CC1(OCC(F)(F)F)OC(=O)C(c2ccc(F)cc2)=C1c1ccc(S(C)(=O)=O)cc1 (configuration not stated) | 6.4 | bioavailability [10]: 35% |
| > 5 | > 10 | > 33 | CC1(O)OC(=O)C(Oc2ccc(F)c(F)c2)=C1c1ccc(S(C)(=O)=O)cc1 (configuration not stated) |  |  |
| 0.14 | 101 | 1.7 | CC1(O)OC(=O)C(c2ccc(Br)cc2)=C1c1ccc(S(C)(=O)=O)cc1 (configuration not stated) | 1.6 | IC50 [9]: > 100 µM |
| 0.11 | 105 |  | CC1(O)OC(=O)C(c2ccc(Cl)cc2)=C1c1ccc(S(C)(=O)=O)cc1 (configuration not stated) | 1.4 |  |
| 0.31 | 7 | 1.7 | CSc1ccc(C2=C(c3ccc(S(C)(=O)=O)cc3)C(C)(O)OC2=O)cc1 (configuration not stated) |  | IC50 [9]: 38 µM |
|  | 10 | 0.5 | CCOC1(C)OC(=O)C(c2ccc(F)cc2)=C1c1ccc(S(C)(=O)=O)cc1 (configuration not stated) |  |  |
| 0.11 | 81 | 2.2 | CC1(O)OC(=O)C(c2ccc(F)c(Cl)c2)=C1c1ccc(S(C)(=O)=O)cc1 (configuration not stated) |  |  |
